Measurements taken from US5716994A, “Antitumor and antileukaemic substances, their preparation and pharmaceutical compositions containing them” (Rhone-Poulenc Rorer S.A., priority 1994, dated 1998).
Like-named read-outs stand apart in the source and are kept apart here.

Experiments:
[1] = tested on: Tubulin, derived from pig brain; settings: for effect on the polymerization of tubulin (in words): increase in the latent period, decrease in the rate of polymerization, lower turbidity in the stationary state; for IC50: read-out: concentration which inhibits by 50% the polymerization of tubulin, tubulin 8.5 μM, 37° C., 30 minutes, product 0.8 to 16 μM
Description: The assembly of tubulin into microtubules results in an increase in the turbidity observed at 350 nm with the aid of spectrophotometer.

[2] = tested on: murine leukaemia cell lines P388; settings: p388 leukaemia cells
[3] = tested on: resistant lines P388/DOX; settings: p388 leukaemia cells

IC50 [1] [nM] | IC50 ([1]; listed as 3-(3-hydroxy-4-methoxybenzyl)-7-methylene-1-vinyl-2,3,3a,4,7,7a-hexahydroinden-4) [nM] | Structure (SMILES) | effect on the polymerization of tubulin (in words) [1] | cytotoxicity [2] | cytotoxicity [3]
< 5 | < 1 | C=CC1CC(Cc2ccc(OC)c(O)c2)C2C(=O)C=CC(=C)C12 (stereo not drawn) [formula (I), 3-(3-hydroxy-4-methoxybenzyl)-7-methylene-1-vinyl-2,3,3a,4,7,7a-hexahydroinden-4-one] | inhibition of the polymerization of tubulin | – | –
– | – | C=CC1CC(Cc2ccc(OC)c(O)c2)c2c(O)ccc(C)c21 (stereo not drawn) [formula (II), 3-(3-hydroxy-4-methoxybenzyl)-4-hydroxy-7-methyl-1-vinylindan] | inhibition of the polymerization of tubulin | less than 1 μg/cm^3 | less than 1 μg/cm^3
